Results published in US9155715B2, “Transdermal composition comprising tolterodine” (SK Chemicals Co., Ltd., priority 2009, dated 2015).

Legend:
Assay type in all cases: physicochemical
[1] = Screening of antioxidant (tolterodine decomposition in H2O2 solution); details: 25° C., 100 rpm, 2.5 days
Protocol: (§1) [Analytical Method] • Test solution: tolterodine (−0.5 mg/mL) • Mobile phase: 45:55 mixture solution of ammonium dihydrogen phosphate and methanol, pH 7.0 • HPLC condition: detector 220 nm, column ODS3 C-18
Tolterodine free base (500 mg) was mixed with ethanol (50 mL) in a 100 mL flask and 0.3% H2O2 solution was added thereto to a final volume of 100 mL.
Antioxidant, weighed 10 mg each, was added into two glass bottles. One bottle contained tolterodine and the antioxidant, while the other bottle contained only the antioxidant, which was prepared to exclude the peaks resulting from the decomposition of the antioxidant by H2O2.
Tolterodine solution (2 mL) or a 1:1 mixture solution of 0.3% H2O2 aqueous solution and ethanol (2 mL) were added to the two glass bottles containing the antioxidant. The bottles were agitated at 100 rpm and 25° C. for 2.5 days.

[2] = Stress decomposition test of tolterodine under heat conditions
Protocol: as §1
Tolterodine free base (25-30 mg) was weighed and added into four glass bottles which were then capped with plugs. Three of the glass bottles were placed in an oven preheated at 120° C. At 10 minutes, 20 minutes and 30 minutes, each glass bottle was taken out from the oven and was allowed to cool enough at room temperature. After adding methanol (100 mL) to the four glass bottles followed by ultrasonic extraction for 10 minutes, decomposed substances of tolterodine were quantitated by HPLC as in Reference Example 1.

[3] = Stress decomposition test of tolterodine under acidic/basic/oxidizing conditions; details: for Total decomposed substances (peak area ratio of decomposed substances of tolterodine): 24 hours, HPLC
Protocol: Tolterodine free base (20 mg) was added respectively to three 100 mL flasks. Each of the above flasks was then added with 0.1 M HCl (5 mL), 0.1 M NaOH (5 mL) and 0.3% H2O2 solution (5 mL), respectively, added with methanol to a final volume of 20 mL and was subjected to ultrasonic extraction for 10 minutes.
Each sample was allowed to stand at room temperature for 24 hours and decomposed substances of tolterodine were quantitated by HPLC as follows.
as §1

[4] = tolterodine in ethanol/0.3% H2O2 with 10 mg of the named antioxidant

| SMILES | Total decomposed substances (peak area ratio of decomposed substances of tolterodine) [1, 4] [%] | further results |
| --- | --- | --- |
| COc1ccc(O)c(C(C)(C)C)c1 [Butylated hydroxyanisole (BHA), Butylated hydroxyanisole] | 23.87 | – |
| O=C(O)CC(O)(CC(=O)O)C(=O)O [Citric acid] | 1.46 | – |
| CCOC(=O)c1cc(O)c(O)c(O)c1 [Ethyl gallate] | 13.00 | – |
| O=C([O-])CN(CCN(CC(=O)[O-])CC(=O)[O-])CC(=O)[O-].[Ca+2].[Na+].[Na+] [Ethylenediaminetetraacetic acid calcium disodium salt] | 29.69 | – |
| CCCCCCCCCCCCOC(=O)c1cc(O)c(O)c(O)c1 [Lauryl gallate] | 19.94 | – |
| O=S([O-])[O-].[Na+].[Na+] [Sodium sulfite] | 5.67 | – |
| O=S([O-])([O-])=S.[Na+].[Na+] [Sodium thiosulfate] | 1.94 | – |
| Cl.N[C@@H](CS)C(=O)O [l-Cysteine HCl] | – | Total decomposed substances (peak area ratio of decomposed substances of tolterodine) ([1]; tolterodine in ethanol/0.3% H2O2 with 10 mg of the named antioxidant, HCl): 1.70% |
| N[C@@H](CCC(=O)O)C(=O)O [l-Glutamic acid] | 1.52 | – |
| O=C(O)C(O)C(O)C(=O)O (stereo not drawn) [l-Tartaric acid] | 1.44 | – |
| Cc1ccc(O)c([C@H](CCN(C(C)C)C(C)C)c2ccccc2)c1 [tolterodine] | – | Total decomposed substances (peak area ratio of decomposed substances of tolterodine) ([1]; tolterodine in ethanol/0.3% H2O2, antioxidant: None): 26.08%; Total decomposed substances (peak area ratio of decomposed substances of tolterodine) ([2]; 120° C./0 min): 0.45%; Total decomposed substances (peak area ratio of decomposed substances of tolterodine) ([2]; 120° C./10 min): 0.59%; Total decomposed substances (peak area ratio of decomposed substances of tolterodine) ([2]; 120° C./20 min): 0.63%; Total decomposed substances (peak area ratio of decomposed substances of tolterodine) ([2]; 120° C./30 min): 0.78%; Total decomposed substances (peak area ratio of decomposed substances of tolterodine) ([3]; 0.1M HCl, room temperature): 0.59%; Total decomposed substances (peak area ratio of decomposed substances of tolterodine) ([3]; 0.1M NaOH, room temperature): 0.83%; Total decomposed substances (peak area ratio of decomposed substances of tolterodine) ([3]; 0.3% H2O2, room temperature): 4.74%; Production of decomposed substances of tolterodine under stress conditions (in words) ([3]; harsh oxidizing condition, compared with acid, base and heat): Much of decomposed substances of tolterodine were produced |

Second part, led by results:

| Total decomposed substances (peak area ratio of decomposed substances of tolterodine) [1, 4] [%] | SMILES | further results |
| --- | --- | --- |
| 1.39 | O=C(O)CC(O)C(=O)O (racemic) [d,l-Malic acid] | – |
| 23.56 | CC(=O)Oc1c(C)c(C)c2c(c1C)CC[C@@](C)(CCC[C@H](C)CCC[C@H](C)CCCC(C)C)O2 [(+)-α-Tocopherol acetate] | – |
| 18.82 | Cc1cc(C(C)(C)C)c(O)c(C(C)(C)C)c1 [Butylated hydroxytoluene (BHT), Butylated hydroxytoluene] | – |
| 20.29 | Cc1c(C)c2c(c(C)c1O)CCC(C)(CCCC(C)CCCC(C)CCCC(C)C)O2 (stereo not drawn) [d,l-α-Tocopherol] | – |
| 1.94 | CCCCCCCCCCCCCCCC(=O)OC[C@H](O)[C@H]1OC(=O)C(O)=C1O [l-Ascorbic acid 6-palmitate] | – |
| 1.21 | O=C1O[C@H]([C@@H](O)CO)C(O)=C1O [l-Ascorbic acid] | – |
| 15.97 | CCCCCCCCOC(=O)c1cc(O)c(O)c(O)c1 [n-Octyl gallate] | – |
